# Experimental data reported in US10881611B2, “Extracellular vesicles derived from osteoblastic lineage cells for therapeutic and diagnostic use” (Fondazione Città Della Speranza—Onlus, priority 2015, dated 2021).
# B1: parathyroid hormone: human recombinant parathyroid hormone used at 10^−8 M to stimulate osteoblasts (protein, UniProt P01270 32-115, looked up)
# Parathyroid hormone: SVSEIQLMHNLGKHLNSMERVEWLRKKLQDVHNFVALGAPLAPRDAGSQRPRKKEDNVLVESHEKSLGEADKADVNVLTKAKSQ
# modifications: Parathyroid hormone
# notes: human recombinant parathyroid hormone used at 10^−8 M to stimulate osteoblasts
# Tests used:
# [1] = test system: human osteosarcoma cell lines; assay: Cell viability assay (MTT) of human osteosarcoma cell lines; assay type: cell-based
# Description: Osteosarcoma cell lines sensitivity to anti-tumour drug Doxorubicin was evaluated by treating the cells with different Doxorubicin concentrations and carrying out cell viability assay with MTT at different times.
# RANKL+ O-EVs were incubated with Doxorubicin (300 mg/ml) in vitro, then subjected to FACS. RANKL+ O-EV-associated doxorubicin confers red fluorescence to the nanoparticles, enabling FACS isolation thereof (FIG. 11).
# Human osteosarcoma cell lines were treated with free Doxorubicin (235 ng, corresponding to a concentration of 1 micromole/litre in the medium) or with RANKL+ O-EV-associated Doxorubicin (100,000 FACS-isolated nanoparticles, containing 3.2 ng of Doxorubicin, corresponding to a concentration of 10 nanomole/litre in the medium). […] However, the treatment with anti-tumour drug-loaded RANKL+ O-EVs allowed to obtain this effect with a Doxorubicin dose 100-fold lower than the free drug (Table 1 below).
# mature osteoclasts = assay: Mature osteoclasts treated for 48 hours, TRAcP colouring; assay type: cell-based, mouse
# Text: Primary mouse osteoclasts are obtained by medullar macrophages differentiation isolated from CD1 long bones of age comprised within 7-10 days. The litter is kept and maintained according to the legal requirements, under the supervision of a veterinary responsible. When experimentally needed, the animals are sacrificed according to the laws and the long bones are explanted and cleaned from soft tissues. The bones are then submitted to mechanical disruption in order to free the bone marrow. The cells obtained are diluted in PBS and stratified 1:1 on Histopaque (Sigma-Aldrich), and centrifuged for 30′ at 450 g. The formed buffy coat is collected and washed with PBS. […] The osteoclastic phenotype is routinely assessed by biochemical assay to tartarate resistant acidic phosphatase positivity on a cell aliquot fixed in PFA/PBS (4% v/v). […]
# The sensitivity of mature osteoclasts to the antitumor medicament doxorubicin has been evaluated by treating the cells with different doxorubicin concentrations (0.1-0.2-0.5-1-2-4 μM) and carrying out TRAcP colouring after fixing. […]
# The sensitivity of mature osteoclasts to the medicament zolendronate has been assessed by treating the cells with different zolendronate concentrations (10^−8, 5×10^−8, 10^−7, 5×10^−7, 10^−6, 5×10^−6, 10^−5, 5×10^−5, 10^−4 M) and carrying out TRAcP colouring after fixing. […]
# primary osteoblasts = assay: FACS evaluation of the RANKL-positive O-EV fraction released by osteoblasts under parathyroid hormone stimulation; assay type: cell-based, murine; conditions: osteoblasts subjected to parathyroid hormone stimulation (10^−8 M human recombinant), p=0.037; without stimulation 53.06+3.47%
# Description: Murine osteoblasts, obtained as previously described, are plated in 150 cm^2 culture flasks and grown in DMEM culture medium containing glutamine (5 mM), penicillin (1 mg/ml), streptomycin (2 mg/ml) and American fetal bovine serum (10% v/v) (FBS), and kept in incubator under 5% CO2. Upon reaching 70% confluence, cells were abundantly washed with PBS (3 times) to remove serum residues, and kept 24 hours in glutamine (5 mM)/penicillin (1 mg/ml), streptomycin (2 mg/ml) DMEM medium. […]
# At the end of the procedure, the pellet obtained is resuspended in […] PBS and incubated with 10 microM CMFDA, at 37° C. for 30 min. The pellet is then brought to maximum volume with PBS in ultra-centrifuge tube, centrifuged at 30,000 RPM for 70 minutes at 4° C., and evaluated for quantity and quality by cytofluorimetric analysis. […]
# FACScanto II (BD Biosciences) was resorted to for cytofluorimetric analysis. […] Moreover, the prescribed fluorescence channel compensations are carried out. […]
# For evaluation of RANKL expression, CMFDA positive RANKL+ O-EV pellet is incubated for 30 min with mouse anti-RANKL antibody conjugated with Phycoerythrin (PE) (1:100) in PBS/BSA (1%). RANKL+ O-EVs are then FACS analysed and CMFDA/PE double-positive fraction is isolated for further evaluations. […]
# [2] = human osteosarcoma cell lines, Table 1
molecule,measurement,setting,value
COc1cccc2c1C(=O)c1c(O)c3c(c(O)c1C2=O)C[C@@](O)(C(=O)CO)C[C@@H]3O[C@H]1C[C@H](N)[C@H](O)[C@H](C)O1 [Doxorubicin],Doxorubicin concentration at which toxicity on tumour cells manifests,"[1]; MTT at different times, osteosarcoma cell lines",> 1 µmol/L
same,death of the neoplastic cells,"[1]; free Doxorubicin 235 ng, 1 micromole/litre in the medium",about 80%
same,Doxorubicin amount giving death of about 80% of the neoplastic cells,[1]; [2],235 ng
same,Doxorubicin concentration in the medium giving death of about 80% of the neoplastic cells,[1]; [2],1 µM
same,doxorubicin concentration above which toxicity on mature osteoclasts shows,mature osteoclasts; 0.1-4 μM tested,higher than 0.2 micromolar
O=P(O)(O)C(O)(Cn1ccnc1)P(=O)(O)O [zolendronate],zolendronate concentration above which toxicity on mature osteoclasts is shown,mature osteoclasts; 10^−8 to 10^−4 M tested,higher than 10^−7 M
B1,RANKL-positive O-EV subpopulation,primary osteoblasts,63.6±4.20%
